Assay results published in patent US6841172B1, “Method for iron delivery to a patient by transfer from dialysate” (HemoCleanse, Inc., priority 1996, dated 2005).

Columns and labels:
[1] = Transfer of ferrous gluconate from dialysate into blood by hemodialysis through a PAN membrane dialyzer; assay type: in vitro ADME, bovine
Experimental: A two liter volume of bovine blood (hematocrit adjusted from 49 to 40 with saline) which had been stored with heparin anticoagulation for 24 hours was dialyzed using a PAN membrane dialyzer. The volume was maintained at 2 liters throughout the experiment by adding saline.
A sample of the blood was taken prior to dialysis of the blood and tested for iron content. The iron content of the pre-dialysis blood was 110 μg/dl and the transferrin iron binding capacity was 234 μg/dl. Dialysis was then started using the following equipment and conditions:
The circuit was primed with dialysate, prepared as described above, pumps were adjusted for proper flow, and then the blood side was drained of dialysate by pulling the Blood In tube out of the dialysis bath and allowing air to fill this side.
Assays were performed to determine plasma iron concentrations at 0, 5, 10, 20 and 30 minutes. […] This transfer indicates an avidity of plasma for the iron complex, even higher than the iron binding capacity of transferrin.

red blood cells = assay: Monitoring of hemolysis in experimental dialysis (plasma absorbance at 420 and 585 nm); set-up: species or system bovine; conditions: compared with similar experiments without iron in the dialysate
Text: To determine whether the method of Example 1 would cause hemolysis (lysis of red blood cells with the liberation of hemoglobin), absorbance data at 420 and 585 nm was collected for the plasma at various stages of the experiment described in Example 1.

## ferrous gluconate
[1]; after 30 minutes of dialysis, dialysate iron 125 μg/dl, pre-dialysis blood iron 110 μg/dl, transferrin iron binding capacity 234 μg/dl
  plasma iron level: ~500 µg/dL
[1]; after only a few minutes of hemodialysis, dialysate iron 125 μg/dl
  percent saturation of transferrin: 100%
[1]; dialysate ferrous gluconate increased to 4 mg/dl
  iron transferred per dialysis treatment: 15 mg
[1]; if the initial rate of iron transfer is continued for 180 minutes, dialysate 1 mg/dl ferrous gluconate
  iron transferred to the plasma: approximately 4 mg
Red blood cells
  level of hemolysis during dialysis: not higher than that of similar experiments conducted without iron in the dialysate
